Where two headings read alike, the source gives them in different places.

Consider 20 compounds from patent US20230219906A1, “MACROCYCLIC-2-AMINO-3-FLUORO-BUT-3-ENAMIDES AS INHIBITORS OF MCL-1” (Janssen Pharmaceutica NV, priority 2020, published 2023).

Assay [1] concerns the target Myeloid Cell Leukemia 1(Mcl-1) (Homo sapiens, UniProt Q07820). Briefly: Terbium labeled Mcl-1 HTRF binding assay with Cy5-labeled BIM BH3 peptide. The settings on record: displacement of Cy5 Bim BH3 peptide; Ki=IC50/(1+[L]/Kd), [L]=8 nM, Kd=10 nM; 60 minutes at room temperature; read-out: Tb-MCL1 Ki. The procedure: Terbium labeled Myeloid Cell Leukemia 1(Mcl-1) homogeneous time-resolved fluorescence (HTRF) binding assay utilizing the BIM BH3 peptide (H2N—(C/Cy5Mal) WIAQELRRIGDEFN-OH) as the binding partner for Mcl-1.
This assay evaluated inhibition of the BH3 domain: Mcl-1 interaction by measuring the displacement of Cy5-labeled BIM BH3 peptide (H2N—(C/Cy5Mal) WIAQELRRIGDEFN-OH) in the HTRF assay format.
The following assay and stock buffers were prepared for use in the assay: (a) Stock buffer: 10 mM Tris-HCl, pH=7.5+150 mM NaCl, filtered, sterilized, and stored at 4° C.; and (b) 1X assay buffer, where the following ingredients were added fresh to stock buffer: 2 mM dithiothreitol (DTT), 0.0025% Tween-20, 0.1 mg/mL bovine serum albumin (BSA). The 1X Tb-Mcl-1+Cy5 Bim peptide solution was prepared by diluting the protein stock solution using the 1X assay buffer (b) to 25 pM Tb-Mcl-1 and 8 nM Cy5 Bim peptide.
Using the Acoustic ECHO, 100 nL of 100x test compound(s) were dispensed into individual wells of a white 384-well Perkin Elmer Proxiplate, for a final compound concentration of 1× and final DMSO concentration of 1%. Inhibitor control and neutral control (NC, 100 nL of 100% DMSO) were stamped into columns 23 and 24 of assay plate, respectively. Into each well of the plate was then dispensed 10 μL of the 1X Tb-Mcl-1+Cy5 Bim peptide solution. The plate was centrifuged with a cover plate at 1000 rpm for 1 minute, then incubated for 60 minutes at room temperature with plates covered.
The TR-FRET signal was read on an BMG PHERAStar FSX MicroPlate Reader at room temperature using the HTRF optic module (HTRF: excitation: 337 nm, light source: laser, emission A: 665 nm, emission B: 620 nm, integration start: 60 μs, integration time: […]).
The BMG PHERAStar FSX MicroPlate Reader was used to measure fluorescence intensity at two emission wavelengths—665 nm and 620 nm—and report relative fluorescence units (RFU) for both emissions, as well as a ratio of the emissions (665 nm/620 nm)*10,000. The RFU values were normalized to percent inhibition as follows:
% inhibition=(((NC−IC)−(compound−IC))/(NC−IC))*100
where IC (inhibitor control, low signal)= mean signal of 1X Tb-MCl-1+Cy5 Bim peptide+inhibitor control or 100% inhibition of Mcl-1; NC (neutral control, high signal)= mean signal 1X Tb-MCl-1+Cy5 Bim peptide with DMSO only or 0% inhibition An 11-point dose response curve was generated to determine IC50 values (using GenData) based on the following equation:
Y=Bottom+(Top−Bottom)/(1+10∧((log IC50−X)*HillSlope))
where Y=% inhibition in the presence of X inhibitor concentration; Top=100% inhibition derived from the IC (mean signal of Mcl-1+inhibitor control); Bottom=0% inhibition derived from the NC (mean signal of Mcl-1+DMSO); Hillslope=Hill coefficient; and IC50=concentration of compound with 50% inhibition in relation to top/neutral control (NC).
In this assay [L]=8 nM and Kd=10 nM
A general note: TR-FRET usually uses a lanthanide donor and a delayed reading to cut background.

Assay [2] deals with MOLP-8 human multiple myeloma cell line. Kind of assay: Caspase-Glo 3/7 apoptosis induction assay in MOLP-8 cells. The format is cell-based. The following applies: caspase-3/7 activity, 2 hours at 37° C., averaged over all runs on all batches, read-out: MOLP8 AC50. The text has this:
MCL-1 is a regulator of apoptosis and is highly over-expressed in tumor cells that escape cell death. The assay evaluates the cellular potency of small-molecule compounds targeting regulators of the apoptosis pathway, primarily MCL-1, Bfl-1, Bcl-2, and other proteins of the Bcl-2 family. Protein-protein inhibitors disrupting the interaction of anti-apoptotic regulators with BH3-domain proteins initiate apoptosis.
The Caspase-Glo® 3/7 Assay is a luminescent assay that measures caspase-3 and −7 activities in purified enzyme preparations or cultures of adherent or suspension cells. The assay provides a proluminescent caspase-3/7 substrate, which contains the tetrapeptide sequence DEVD. This substrate is cleaved to release aminoluciferin, a substrate of luciferase used in the production of light. Addition of the single Caspase-Glo® 3/7 Reagent in an “add-mix-measure” format results in cell lysis, followed by caspase cleavage of the substrate and generation of a “glow-type” luminescent signal.
This assay uses the MOLP-8 human multiple myeloma cell line, which is sensitive to MCL-1 inhibition.
Cell cultures were maintained between 0.2 and 2.0×10^6 cells/mL. The cells were harvested by collection in 50 mL conical tubes. The cells were then pelleted at 500 g for 5 mins before removing supernatant and resuspension in fresh pre-warmed culture medium. The cells were counted and diluted as needed.
The assay reagent was prepared by transferring the buffer solution to the substrate vial and mixing. The solution may be stored for up to 1 week at 4° C. with negligible loss of signal.
Compounds were delivered in assay-ready plates (Proxiplate) and stored at −20° C. Assays always include 1 reference compound plate containing reference compounds. The plates were spotted with 40 nL of compounds (0.5% DMSO final in cells; serial dilution; […] highest conc. 1/3 dilution, 10 doses, duplicates). The compounds were used at room temperature and 4 μL of pre-warmed media was added to all wells except column 2 and 23. The negative control was prepared by adding 1% DMSO in media. The positive control was prepared by adding the appropriate positive control compound in final concentration of […] in media. The plate was prepared by adding 4 μL negative control to column 23, 4 μL positive control to column 2 and 4 μL cell suspension to all wells in the plate. The plate with cells was then incubated at 37° C. for 2 hours. The assay signal reagent is the Caspase-Glo solution described above, and 8 μL was added to all wells. The plates were then sealed and measured after 30 minutes.
The activity of a test compound was calculated as percent change in apoptosis induction as follows:
% Effect (AC50)=100−(sample-LC)/(HC-LC)*100
% Control=(sample/HC)*100
% Control min=(sample-LC)/(HC-LC)*100

Myeloid Cell Leukemia 1(Mcl-1), sequence (Q07820 whole entry, the tested form may be a part): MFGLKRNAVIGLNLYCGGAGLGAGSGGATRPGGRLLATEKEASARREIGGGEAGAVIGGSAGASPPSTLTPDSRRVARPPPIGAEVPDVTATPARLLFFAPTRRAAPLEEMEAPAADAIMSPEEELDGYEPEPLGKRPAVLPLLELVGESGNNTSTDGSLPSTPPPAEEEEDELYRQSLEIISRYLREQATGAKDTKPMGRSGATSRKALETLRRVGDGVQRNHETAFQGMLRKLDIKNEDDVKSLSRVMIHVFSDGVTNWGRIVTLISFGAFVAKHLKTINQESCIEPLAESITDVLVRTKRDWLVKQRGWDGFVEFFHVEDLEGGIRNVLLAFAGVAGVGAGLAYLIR

`C[C@@H]1[C@@H](C)C/C=C(\F)[C@H](C(=O)N2CCOC(C(F)(F)F)C2)N2CCC[C@H]2CN2C[C@@]3(CCCc4cc(Cl)ccc43)COc3ccc(cc32)C(=O)NS1(=O)=O` (single isomer, unassigned) [Compound 20]: the Ki – broadly, the equilibrium dissociation constant of an inhibitor or competing ligand from its target – in assay [1] came to 0.255 nM. Further, the AC50 (as a rule, the concentration at which the activity in the assay is half-maximal) in assay [2] (Homo sapiens, MOLP-8, 2 h) is 193 nM.
For `CO[C@H]1CN(C(=O)[C@H]2/C(F)=C/C[C@H](C)[C@@H](C)S(=O)(=O)NC(=O)c3ccc4c(c3)N(C[C@@H]3CCCN32)C[C@@]2(CCCc3cc(Cl)ccc32)CO4)C[C@H]1OC` [Compound 60], the inhibition constant Ki in assay [1] came to 0.022 nM. The AC50 in assay [2] (Homo sapiens, MOLP-8, 2 h) is 92.3 nM.
On to `C[C@@H]1[C@@H](C)C/C=C(\F)[C@H](C(=O)N2CCC3(CCCCC3)C2)N2CCC[C@H]2CN2C[C@@]3(CCCc4cc(Cl)ccc43)COc3ccc(cc32)C(=O)NS1(=O)=O` [Compound 32], for which the Ki in assay [1] is 0.603 nM. Further, in assay [2] (Homo sapiens, MOLP-8, 2 h), the AC50 worked out at 478 nM.
The matching figures for `C[C@@H]1[C@@H](C)C/C=C(\F)[C@@H](C(=O)N(C)CCN2CCOCC2)N2CCC[C@H]2CN2C[C@@]3(CCCc4cc(Cl)ccc43)COc3ccc(cc32)C(=O)NS1(=O)=O` (single isomer, unassigned) [Compound 33]: 0.195 nM and 218 nM.
Take `C[C@@H]1[C@@H](C)C/C=C(\F)[C@H](C(=O)N(CCO)CCN2CCOCC2)N2CCC[C@H]2CN2C[C@@]3(CCCc4cc(Cl)ccc43)COc3ccc(cc32)C(=O)NS1(=O)=O` [Compound 74]: the Ki in assay [1] turned out to be 0.02 nM. Further, the AC50 in assay [2] (Homo sapiens, MOLP-8, 2 h) stood at 436 nM.
With `C[C@@H]1[C@@H](C)C/C=C(\F)[C@H](C(=O)N(C)Cc2nnnn2C)N2CCC[C@H]2CN2C[C@@]3(CCCc4cc(Cl)ccc43)COc3ccc(cc32)C(=O)NS1(=O)=O` [Compound 66], the Ki in assay [1] was determined as 0.025 nM. The AC50 in assay [2] (Homo sapiens, MOLP-8, 2 h) stood at 357 nM.
Turning to `C[C@@H]1CN(C(=O)[C@H]2/C(F)=C/C[C@H](C)[C@@H](C)S(=O)(=O)NC(=O)c3ccc4c(c3)N(C[C@@H]3CCCN32)C[C@@]2(CCCc3cc(Cl)ccc32)CO4)CCN1C` [Compound 23], in assay [1], the Ki is 0.054 nM. Further, the AC50 in assay [2] (Homo sapiens, MOLP-8, 2 h) was found to be 101 nM.
Regarding `Cc1nc(CN(C)C(=O)[C@H]2/C(F)=C/C[C@H](C)[C@@H](C)S(=O)(=O)NC(=O)c3ccc4c(c3)N(C[C@@H]3CCCN32)C[C@@]2(CCCc3cc(Cl)ccc32)CO4)co1` [Compound 80], the Ki in assay [1] was determined as 0.079 nM. Moreover, in assay [2] (Homo sapiens, MOLP-8, 2 h), the AC50 turned out to be 134 nM.
For `C[C@@H]1[C@@H](C)C/C=C(\F)[C@H](C(=O)N(C)CC2COCCO2)N2CCC[C@H]2CN2C[C@@]3(CCCc4cc(Cl)ccc43)COc3ccc(cc32)C(=O)NS1(=O)=O` (single isomer, unassigned) [Compound 55], the Ki in assay [1] is 0.037 nM. Also, in assay [2], the AC50 turned out to be 81.2 nM.
On to `C[C@@H]1[C@@H](C)C/C=C(\F)[C@H](C(=O)N(C)CCN2CCOCC2)N2CCC[C@H]2CN2C[C@@]3(CCCc4cc(Cl)ccc43)COc3ccc(cc32)C(=O)NS1(=O)=O` [Compound 1], for which the Ki in assay [1] stood at 0.027 nM. In addition, the AC50 in assay [2] (Homo sapiens, MOLP-8, 2 h) worked out at 80.1 nM.
On to `C[C@@H]1[C@@H](C)C/C=C(\F)[C@H](C(=O)N2CC3(CSC3)C2)N2CCC[C@H]2CN2C[C@@]3(CCCc4cc(Cl)ccc43)COc3ccc(cc32)C(=O)NS1(=O)=O` [Compound 15], for which the Ki in assay [1] stood at 0.162 nM. The AC50 in assay [2] (Homo sapiens, MOLP-8, 2 h) came to 435 nM.
For `CC(C)N(C)C(=O)[C@H]1/C(F)=C/C[C@H](C)[C@@H](C)S(=O)(=O)NC(=O)c2ccc3c(c2)N(C[C@@H]2CCCN21)C[C@@]1(CCCc2cc(Cl)ccc21)CO3` [Compound 31], the Ki in assay [1] came out at 0.105 nM. Also, the AC50 in assay [2] (Homo sapiens, MOLP-8, 2 h) came to 238 nM.
`C[C@@H]1[C@@H](C)C/C=C(\F)[C@H](C(=O)N(C)Cc2ccnn2C)N2CCC[C@H]2CN2C[C@@]3(CCCc4cc(Cl)ccc43)COc3ccc(cc32)C(=O)NS1(=O)=O` [Compound 34]: the Ki in assay [1] worked out at 0.077 nM. For the same compound, the AC50 in assay [2] (Homo sapiens, MOLP-8, 2 h) was 76.9 nM.
For the compound `C[C@@H]1[C@@H](C)C/C=C(\F)[C@H](C(=O)N(C)Cc2ccn(C)n2)N2CCC[C@H]2CN2C[C@@]3(CCCc4cc(Cl)ccc43)COc3ccc(cc32)C(=O)NS1(=O)=O` [Compound 40], the Ki in assay [1] was determined as 0.623 nM. In assay [2] (Homo sapiens, MOLP-8, 2 h), the AC50 is 138 nM.
On to `C[C@@H]1[C@@H](C)C/C=C(\F)[C@H](C(=O)N2C[C@H]3C[C@@H]2CO3)N2CCC[C@H]2CN2C[C@@]3(CCCc4cc(Cl)ccc43)COc3ccc(cc32)C(=O)NS1(=O)=O` [Compound 9], for which the Ki in assay [1] came to 0.13 nM. The AC50 in assay [2] (Homo sapiens, MOLP-8, 2 h) worked out at 180 nM.
Consider `C[C@@H]1[C@@H](C)C/C=C(\F)[C@H](C(=O)N2CC[C@@H](C#N)C2)N2CCC[C@H]2CN2C[C@@]3(CCCc4cc(Cl)ccc43)COc3ccc(cc32)C(=O)NS1(=O)=O` [Compound 47], for which the Ki in assay [1] was 0.065 nM. In addition, the AC50 in assay [2] (Homo sapiens, MOLP-8, 2 h) amounted to 241 nM.
Regarding `C[C@@H]1[C@@H](C)C/C=C(\F)[C@H](C(=O)N(C)C2CCCOC2)N2CCC[C@H]2CN2C[C@@]3(CCCc4cc(Cl)ccc43)COc3ccc(cc32)C(=O)NS1(=O)=O` (single isomer, unassigned) [Compound 62], the Ki in assay [1] was found to be 0.058 nM. In addition, in assay [2] (Homo sapiens, MOLP-8, 2 h), the AC50 came to 134 nM.
In the case of `C[C@@H]1[C@@H](C)C/C=C(\F)[C@H](C(=O)N2CCOC[C@@H]2C)N2CCC[C@H]2CN2C[C@@]3(CCCc4cc(Cl)ccc43)COc3ccc(cc32)C(=O)NS1(=O)=O` [Compound 12], the Ki in assay [1] was found to be 0.069 nM. Further, the AC50 in assay [2] (Homo sapiens, MOLP-8, 2 h) is 196 nM.
Turning to `C[C@@H]1[C@@H](C)C/C=C(\F)[C@H](C(=O)N2CCOCC2)N2CCC[C@H]2CN2C[C@@]3(CCCc4cc(Cl)ccc43)COc3ccc(cc32)C(=O)NS1(=O)=O` [Compound 8], the Ki in assay [1] was determined as 0.074 nM. In assay [2] (Homo sapiens, MOLP-8, 2 h), the AC50 stood at 141 nM.
Turning to `C[C@@H]1[C@@H](C)C/C=C(\F)[C@H](C(=O)N(C)C)N2CCC[C@H]2CN2C[C@@]3(CCCc4cc(Cl)ccc43)COc3ccc(cc32)C(=O)NS1(=O)=O` [Compound 3], in assay [1], the Ki was 0.129 nM. In assay [2] (Homo sapiens, MOLP-8, 2 h), the AC50 amounted to 99.2 nM.
